Source: publication PMC11062922 (Nature Chemical Biology, 2023)
Like-named read-outs stand apart in the source and are kept apart here.

What was measured:
[1] = target: PKN3 (Homo sapiens, UniProt Q6P5Z2); assay: NanoBRET in-cell target engagement in HEK293T cells: PKN3; assay type: cell-based; design: full-length PKN3, CSNK2A1 or CSNK2A2 ORF; host or cells: HEK293T;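 also: Full-length PKN3 with C-terminal NanoLuc expressed in HEK293T cells, serial inhibitor dilutions competing against Kinase Tracer K5 at 500 nM, BRET read after 2 h at 37 °C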
Sequence of PKN3 (Q6P5Z2 whole entry): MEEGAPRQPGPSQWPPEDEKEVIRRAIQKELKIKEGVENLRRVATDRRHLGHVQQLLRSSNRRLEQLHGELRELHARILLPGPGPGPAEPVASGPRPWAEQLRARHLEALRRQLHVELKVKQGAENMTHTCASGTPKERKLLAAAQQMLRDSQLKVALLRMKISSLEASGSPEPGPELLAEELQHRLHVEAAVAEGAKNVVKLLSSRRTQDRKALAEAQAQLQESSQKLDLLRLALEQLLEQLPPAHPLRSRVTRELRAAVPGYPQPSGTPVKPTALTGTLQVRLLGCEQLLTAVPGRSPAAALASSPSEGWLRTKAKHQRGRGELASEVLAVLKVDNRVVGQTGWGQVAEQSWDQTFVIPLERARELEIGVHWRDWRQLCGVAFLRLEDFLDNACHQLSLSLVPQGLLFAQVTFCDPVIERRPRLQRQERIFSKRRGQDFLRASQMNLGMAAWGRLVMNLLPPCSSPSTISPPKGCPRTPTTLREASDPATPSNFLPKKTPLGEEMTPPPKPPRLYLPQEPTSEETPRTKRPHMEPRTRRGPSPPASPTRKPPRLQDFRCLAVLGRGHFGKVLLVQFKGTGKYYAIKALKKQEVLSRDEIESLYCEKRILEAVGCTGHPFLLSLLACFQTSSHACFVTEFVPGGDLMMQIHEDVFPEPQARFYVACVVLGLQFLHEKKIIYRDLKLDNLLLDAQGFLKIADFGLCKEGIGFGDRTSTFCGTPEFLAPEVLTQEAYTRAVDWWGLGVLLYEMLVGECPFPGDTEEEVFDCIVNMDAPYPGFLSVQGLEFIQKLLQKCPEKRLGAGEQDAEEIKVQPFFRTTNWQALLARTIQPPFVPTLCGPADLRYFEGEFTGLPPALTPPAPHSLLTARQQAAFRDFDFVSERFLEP

[2] = target: T1, ACAD11 (Homo sapiens, UniProt Q709F0); assay: Kinobeads two-dose competition binding: ACAD11; settings: sheet CATDS matrix 2; Gene Name ACAD11
T1 construct: endogenous in cells
T1 sequence (Q709F0 1-780): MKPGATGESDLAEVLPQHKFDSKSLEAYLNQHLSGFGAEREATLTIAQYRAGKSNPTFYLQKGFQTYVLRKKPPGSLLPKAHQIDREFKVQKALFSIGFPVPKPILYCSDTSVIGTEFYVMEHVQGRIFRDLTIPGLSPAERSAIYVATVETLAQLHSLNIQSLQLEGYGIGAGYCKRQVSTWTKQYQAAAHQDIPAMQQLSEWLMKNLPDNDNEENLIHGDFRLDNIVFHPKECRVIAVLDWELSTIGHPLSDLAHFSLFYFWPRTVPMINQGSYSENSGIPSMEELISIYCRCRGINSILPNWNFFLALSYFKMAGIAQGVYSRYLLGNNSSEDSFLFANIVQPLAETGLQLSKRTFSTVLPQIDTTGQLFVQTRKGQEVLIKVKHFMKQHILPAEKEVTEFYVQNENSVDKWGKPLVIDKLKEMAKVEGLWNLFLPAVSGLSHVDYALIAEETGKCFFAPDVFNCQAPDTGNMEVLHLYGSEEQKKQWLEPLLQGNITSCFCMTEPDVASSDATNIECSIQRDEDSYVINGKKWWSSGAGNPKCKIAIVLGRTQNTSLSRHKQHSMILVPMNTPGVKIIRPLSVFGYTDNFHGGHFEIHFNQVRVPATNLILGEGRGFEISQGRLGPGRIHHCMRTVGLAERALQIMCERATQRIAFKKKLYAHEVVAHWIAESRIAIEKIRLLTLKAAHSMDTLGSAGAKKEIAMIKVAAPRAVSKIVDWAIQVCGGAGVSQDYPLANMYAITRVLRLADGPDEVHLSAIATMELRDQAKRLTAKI

[3] = target: ABL1 (Homo sapiens, UniProt P00519); assay: Kinobeads two-dose competition binding: ABL1; settings: sheet CATDS matrix 2; Gene Name ABL1
Sequence of ABL1 (P00519 28-1130 limits assumed): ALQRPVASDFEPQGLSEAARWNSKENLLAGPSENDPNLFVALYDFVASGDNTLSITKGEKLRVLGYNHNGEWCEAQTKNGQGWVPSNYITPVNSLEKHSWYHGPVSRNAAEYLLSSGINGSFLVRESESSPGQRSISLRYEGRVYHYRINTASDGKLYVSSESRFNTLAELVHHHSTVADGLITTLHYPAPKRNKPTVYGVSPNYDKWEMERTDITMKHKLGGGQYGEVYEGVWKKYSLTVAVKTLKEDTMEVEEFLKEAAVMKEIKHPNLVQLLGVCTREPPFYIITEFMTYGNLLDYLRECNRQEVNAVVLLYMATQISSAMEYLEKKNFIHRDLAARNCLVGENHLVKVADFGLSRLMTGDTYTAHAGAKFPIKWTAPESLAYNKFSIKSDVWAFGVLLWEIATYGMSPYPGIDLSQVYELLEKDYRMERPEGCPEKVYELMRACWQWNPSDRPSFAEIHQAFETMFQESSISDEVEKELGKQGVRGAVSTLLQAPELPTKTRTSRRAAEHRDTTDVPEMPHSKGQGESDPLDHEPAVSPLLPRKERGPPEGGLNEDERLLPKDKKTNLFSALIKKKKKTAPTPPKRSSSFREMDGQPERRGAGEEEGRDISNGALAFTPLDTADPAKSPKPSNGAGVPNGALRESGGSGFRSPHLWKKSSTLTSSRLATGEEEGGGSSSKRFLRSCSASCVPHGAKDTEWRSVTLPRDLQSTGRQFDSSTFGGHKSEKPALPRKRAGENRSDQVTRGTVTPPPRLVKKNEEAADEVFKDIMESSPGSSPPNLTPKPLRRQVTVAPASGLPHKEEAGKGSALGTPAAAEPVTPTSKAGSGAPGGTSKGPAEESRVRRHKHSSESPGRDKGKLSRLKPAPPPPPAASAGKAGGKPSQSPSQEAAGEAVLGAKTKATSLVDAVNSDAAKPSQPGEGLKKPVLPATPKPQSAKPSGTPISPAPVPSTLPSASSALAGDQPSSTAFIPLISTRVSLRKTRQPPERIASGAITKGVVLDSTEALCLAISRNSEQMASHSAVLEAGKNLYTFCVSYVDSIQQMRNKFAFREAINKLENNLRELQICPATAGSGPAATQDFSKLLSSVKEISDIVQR

[4] = target: T2, ACOX1 (Homo sapiens, UniProt Q15067); assay: Kinobeads two-dose competition binding: ACOX1; settings: sheet CATDS matrix 2; Gene Name ACOX1;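 also: competition of compounds with immobilized broad-spectrum kinase inhibitor beads in cell lysate at 100 and 1,000 nM, 45 min at 4 °C, bead-bound protein quantified by label-free MS versus DMSO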
T2 construct: endogenous in cells
T2 sequence (Q15067 1-660): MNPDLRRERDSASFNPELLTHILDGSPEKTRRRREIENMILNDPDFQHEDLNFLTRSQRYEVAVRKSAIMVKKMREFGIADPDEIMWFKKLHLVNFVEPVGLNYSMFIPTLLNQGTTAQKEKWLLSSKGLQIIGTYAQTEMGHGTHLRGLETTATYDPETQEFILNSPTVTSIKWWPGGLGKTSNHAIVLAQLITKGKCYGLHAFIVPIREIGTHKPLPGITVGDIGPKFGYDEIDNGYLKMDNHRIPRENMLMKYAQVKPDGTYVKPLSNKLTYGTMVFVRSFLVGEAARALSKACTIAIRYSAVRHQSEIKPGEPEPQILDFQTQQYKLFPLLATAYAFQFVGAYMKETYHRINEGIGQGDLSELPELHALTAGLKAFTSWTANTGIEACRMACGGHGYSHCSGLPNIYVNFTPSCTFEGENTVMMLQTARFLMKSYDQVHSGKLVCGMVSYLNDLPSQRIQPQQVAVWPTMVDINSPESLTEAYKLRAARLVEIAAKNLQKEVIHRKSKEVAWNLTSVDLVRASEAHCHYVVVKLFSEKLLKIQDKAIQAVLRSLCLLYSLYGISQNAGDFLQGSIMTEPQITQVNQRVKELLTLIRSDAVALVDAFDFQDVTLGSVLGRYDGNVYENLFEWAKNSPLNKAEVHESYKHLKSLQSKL

[5] = target: T3, AAK1 (Homo sapiens, UniProt Q2M2I8); assay: Kinobeads two-dose competition binding: AAK1; settings: for potency estimated from few doses: sheet "Kinobeads Drugmatrix - all", unit inferred, same values below 1000 recur in sheet "nanomolar", read-out: Kinobeads Drugmatrix - all: apparent Kd, AAK1; for CATDS: sheet CATDS matrix 2, Gene Name AAK1;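 as to all read-outs here: kinobeads competition pulldown from cell lysate, compound preincubated 45 min at 4 °C, bead-bound protein measured by label-free mass spectrometry against DMSO vehicle control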
T3 construct: to maximize the representation of endogenous proteins; endogenous in cells
T3 sequence (Q2M2I8 whole entry): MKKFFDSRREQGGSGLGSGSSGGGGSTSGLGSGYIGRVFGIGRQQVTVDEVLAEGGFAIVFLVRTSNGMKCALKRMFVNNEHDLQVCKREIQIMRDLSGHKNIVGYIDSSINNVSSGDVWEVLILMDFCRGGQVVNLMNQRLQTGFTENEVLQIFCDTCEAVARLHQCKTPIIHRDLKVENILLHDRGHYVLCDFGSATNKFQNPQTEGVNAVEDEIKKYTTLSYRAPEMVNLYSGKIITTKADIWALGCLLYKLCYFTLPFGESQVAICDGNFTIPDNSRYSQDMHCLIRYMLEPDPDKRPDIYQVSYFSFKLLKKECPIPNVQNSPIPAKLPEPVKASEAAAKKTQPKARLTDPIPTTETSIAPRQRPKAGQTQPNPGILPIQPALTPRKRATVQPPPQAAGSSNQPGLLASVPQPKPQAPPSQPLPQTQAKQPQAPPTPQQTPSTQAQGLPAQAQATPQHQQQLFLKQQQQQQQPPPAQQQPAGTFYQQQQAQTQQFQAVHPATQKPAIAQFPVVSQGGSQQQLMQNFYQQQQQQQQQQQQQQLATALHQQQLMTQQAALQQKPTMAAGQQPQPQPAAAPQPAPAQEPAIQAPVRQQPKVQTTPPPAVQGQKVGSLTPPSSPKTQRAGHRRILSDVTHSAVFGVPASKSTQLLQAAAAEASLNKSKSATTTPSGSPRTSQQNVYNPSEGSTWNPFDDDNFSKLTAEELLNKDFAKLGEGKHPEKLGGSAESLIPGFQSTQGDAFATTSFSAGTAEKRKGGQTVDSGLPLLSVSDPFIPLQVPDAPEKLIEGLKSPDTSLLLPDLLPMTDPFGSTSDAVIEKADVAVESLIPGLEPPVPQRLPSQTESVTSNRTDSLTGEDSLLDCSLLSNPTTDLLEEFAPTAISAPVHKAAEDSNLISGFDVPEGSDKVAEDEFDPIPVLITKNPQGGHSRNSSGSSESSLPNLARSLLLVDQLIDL

[6] = target: T4, ABL2 (Homo sapiens, UniProt P42684); assay: Kinobeads two-dose competition binding: ABL2; settings: sheet CATDS matrix 2; Gene Name ABL2
T4 construct: endogenous in cells
T4 sequence (P42684 whole entry): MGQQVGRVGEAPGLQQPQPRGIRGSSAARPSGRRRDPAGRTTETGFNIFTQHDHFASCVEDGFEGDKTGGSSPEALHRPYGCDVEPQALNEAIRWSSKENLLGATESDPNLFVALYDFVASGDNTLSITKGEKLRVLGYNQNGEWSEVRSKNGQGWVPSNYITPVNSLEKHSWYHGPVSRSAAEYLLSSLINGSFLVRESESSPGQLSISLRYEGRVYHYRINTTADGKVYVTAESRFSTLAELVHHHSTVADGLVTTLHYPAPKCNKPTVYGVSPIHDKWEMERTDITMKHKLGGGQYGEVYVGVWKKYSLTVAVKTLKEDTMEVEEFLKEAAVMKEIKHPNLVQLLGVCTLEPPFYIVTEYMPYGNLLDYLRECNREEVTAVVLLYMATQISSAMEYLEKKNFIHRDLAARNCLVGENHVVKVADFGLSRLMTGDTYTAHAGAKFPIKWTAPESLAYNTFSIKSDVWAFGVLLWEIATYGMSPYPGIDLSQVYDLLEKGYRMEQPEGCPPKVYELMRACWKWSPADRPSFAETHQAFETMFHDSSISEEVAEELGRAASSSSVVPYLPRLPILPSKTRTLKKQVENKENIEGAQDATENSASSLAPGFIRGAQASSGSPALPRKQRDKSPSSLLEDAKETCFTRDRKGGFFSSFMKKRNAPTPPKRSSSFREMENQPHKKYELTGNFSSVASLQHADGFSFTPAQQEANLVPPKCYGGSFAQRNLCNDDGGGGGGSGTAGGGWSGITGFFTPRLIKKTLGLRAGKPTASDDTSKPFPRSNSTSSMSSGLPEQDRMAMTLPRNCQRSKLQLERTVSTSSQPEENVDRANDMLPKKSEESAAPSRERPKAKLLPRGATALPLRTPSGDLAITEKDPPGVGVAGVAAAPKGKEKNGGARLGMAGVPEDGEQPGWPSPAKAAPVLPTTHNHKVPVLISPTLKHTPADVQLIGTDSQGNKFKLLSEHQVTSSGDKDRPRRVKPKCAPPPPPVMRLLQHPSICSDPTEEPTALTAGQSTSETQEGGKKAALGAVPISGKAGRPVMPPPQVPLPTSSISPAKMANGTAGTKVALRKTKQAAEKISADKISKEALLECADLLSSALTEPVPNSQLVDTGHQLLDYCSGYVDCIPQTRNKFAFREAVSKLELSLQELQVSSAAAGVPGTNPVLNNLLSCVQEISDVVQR

[7] = average of replicates, read-out: Average of IC50 values NanoBRET PKN3
[8] = biological replicate number 1, read-out: Rep 1 IC50 NanoBRET PKN3
[9] = biological replicate number 2, read-out: Rep 2 IC50 NanoBRET PKN3
[10] = biological replicate number 3, read-out: Rep 3 IC50 NanoBRET PKN3
[11] = biological replicate number 4, read-out: Rep 4 IC50 NanoBRET PKN3
[12] = HEK293T cells, in-cell target engagement, read-out: IC50 PKN3 NanoBRET

IC50 [1, 7]	IC50 [1, 8]	IC50 [1, 9]	IC50 [1, 10]	IC50 [1, 11]	IC50 [1, 12]	CATDS [2]	CATDS [3]	CATDS [4]	potency estimated from few doses [5]	CATDS [5]	CATDS [6]	SMILES
> 50000 nM	> 50000 nM	> 50000 nM	> 50000 nM	> 50000 nM	–	–	–	–	–	–	–	CCOc1nccc2c1nc(-c1nonc1N)n2CC [SB-737198]
2360 nM	8030 nM	951 nM	164 nM	295 nM	8000 nM	–	–	–	–	–	–	Fc1ccc(-c2c(-c3ccncc3)[nH]c3cccnc23)cc1 [RO1153853-000]
22.3 nM	73.6 nM	6.19 nM	6.22 nM	3.37 nM	74 nM	–	–	–	–	–	–	CCn1c(-c2nonc2N)nc2c(-c3ccccc3)ncc(OCCCN)c21 [GSK260205A]
–	–	–	–	–	–	0	0	0	410 nM	0.1752	0	COc1cc(Nc2nccc(N3CCC(NC(=O)c4cccc(NC(C)=O)c4)C3)n2)cc(OC)c1OC (stereo not shown) [GSK1379754A]
–	–	–	–	–	–	0	0	0	–	0	0	NC(=O)c1sc(-n2cnc3ccccc32)cc1OCc1ccccc1F [GSK1024306A]
–	–	–	–	–	–	0	0	0	> 1000 nM	0	0	NCC(NC(=O)c1cc(-c2cn[nH]c2)c(-c2ccnc3[nH]ccc23)s1)c1ccccc1 (stereo not shown) [GSK1325775A]
–	–	–	–	–	–	0	0	0	–	0	0	NCC1CCC(CNc2nc(NCc3ccccc3OC(F)(F)F)ncc2[N+](=O)[O-])CC1 (stereo not shown) [BIRZ0518XX]
–	–	–	–	–	–	0	0	0	–	0	0	Cc1c(Cn2c(C)c(C)n3c(=O)cc(N4CCOCC4)nc23)cccc1C(F)(F)F [GSK2328680_KCGS]
–	–	–	–	–	–	0	0	0	108 nM	0.118	0	CNc1nccc(-c2ccc3c(N)n[nH]c3c2)n1 [GSK2206003A]
–	–	–	–	–	–	0	0	0	> 1000 nM	0	0	Cc1occc1-c1nc(N)c(OC[C@@H](N)Cc2c[nH]c3ccccc23)cc1-c1cc2c(C)n[nH]c2cn1 [GSK1660450B]
–	–	–	–	–	–	0	0	0	–	0	0	Cc1c(Cn2c3ccccc3n3c(=O)cc(N4CCOCC4)nc23)cccc1C(F)(F)F [GSK2306394A]
–	–	–	–	–	–	0	0	0	–	0	0	NC[C@H](CC1CCCCC1)NC(=O)c1cc(Br)c(-c2ccnc3[nH]ccc23)s1 [GSK1581427A]
–	–	–	–	–	–	0	0	0	–	0	0	CCCN1CCC(c2ccc(Nc3nc(Nc4cc(F)ccc4C(N)=O)c4cc[nH]c4n3)c(OC)c2)CC1 [GSK1326255A]
–	–	–	–	–	–	0	0	0	–	0	0	COc1cc(Nc2cnc(C#N)c(O[C@H](C)CN(C)C)n2)ncc1-c1cnn(C)c1 [CCT244747]
–	–	–	–	–	–	0	0	0	–	0.04187	0	CNc1cc(-c2ccc3c(N)n[nH]c3c2)nc(N)n1 [GSK2224810A]
–	–	–	–	–	–	0	0	0	–	0	0	Cc1c(Cn2c(C)nn3c(=O)cc(N4CCOC(C)C4)nc23)cccc1C(F)(F)F (stereo not shown) [GSK2344444A]
–	–	–	–	–	–	0	0	0	–	0	0	CCNCC(Cc1ccccc1)NC(=O)c1cc(Br)c(-c2ccnc3[nH]ccc23)s1 (stereo not shown) [GSK1383280A]
–	–	–	–	–	–	0	0	0	–	0	0	CN(C)S(=O)(=O)c1cc(-c2ccc3nccc(-c4cccc(S(N)(=O)=O)c4)c3c2)cnc1N [GSK1669921A]
–	–	–	–	–	–	0	0	0	–	0	0	Cc1ccc(NC(=O)Nc2ccccc2)cc1-c1ccc(C(=O)Nc2ccncc2)cc1 [GSK1398471A]
–	–	–	–	–	–	0	0	0	–	0	0	Cn1cnc2c(F)c(Nc3ccc(Br)cc3F)c(C(=O)NOCCO)cc21 [Binimetinib, reference compound]
–	–	–	–	–	–	0	0	0	–	0	0	O=c1cc(N2CCOCC2)nc2n(Cc3ccc(F)c(Cl)c3)ccn12 [GSK2297099A]
–	–	–	–	–	–	0	0	0	–	0	0	O=C(Nc1c(F)cccc1F)c1cc(C(=O)c2ccccc2F)c[nH]1 [GSK1326180A]
–	–	–	–	–	–	0	0	0	–	0	0	Cc1cc(Nc2ncc(Cl)c(Nc3ccccc3S(=O)(=O)C(C)C)n2)c(OC(C)C)cc1C1CCNCC1 [Ceritinib, reference compound]
–	–	–	–	–	–	0	0	0	–	0	0	COc1c(OCCCN2CCOCC2)ccc2c1N=C(NC(=O)c1cnc(N)nc1)N1CCN=C21 [Copanlisib, reference compound]
–	–	–	–	–	–	0	0	0	–	0	0	CCCc1ccc(S(=O)(=O)NC2CCN(c3ccnc(Nc4ccc(OC)cc4)n3)C2)cc1 (stereo not shown) [GSK1379737A]

SMILES	IC50 [1, 7]	IC50 [1, 8]	IC50 [1, 9]	IC50 [1, 10]	IC50 [1, 11]	IC50 [1, 12]	CATDS [2]	CATDS [3]	CATDS [4]	potency estimated from few doses [5]	CATDS [5]	CATDS [6]
O=C(O[C@H]1CN[C@H](C#Cc2cc3ncnc(Nc4ccc5c(cnn5Cc5ccccc5)c4)c3s2)C1)N1CCOCC1 [GSK200398A_KCGS]	–	–	–	–	–	–	0	0	0	–	0	0
Cc1cccc(Cn2ccn3c(=O)cc(N4CCOCC4)nc23)c1 [GSK2297542A]	–	–	–	–	–	–	0	0	0	–	0	0
c1ccc(-c2cc3ccncc3cc2OC2CCNCC2)cc1 [GSK1122999D]	–	–	–	–	–	–	0	0	0	–	0	0
Cc1cnc(N)c(/C=C/c2cncc(C(=O)NCCc3ccc(Cl)cc3Cl)c2)c1 [GSK190937A]	–	–	–	–	–	–	0	0	0	–	0	0
